Test results taken from paper PMC10239507, “Development of allosteric and selective CDK2 inhibitors for contraception with negative cooperativity to cyclin binding” (Nature Communications, 2023).

What was measured:
Experiment in all cases: biochemical
[1] = molecular target: T1, 371 kinases (kinase named in each endpoint) (Homo sapiens, UniProt P04049); details: RAF1
T1 construct: purchased Reaction Biology

[2] = molecular target: T2, 371 kinases (kinase named in each endpoint) (Homo sapiens, UniProt Q13976); details: PKG1A
T2 construct: purchased Reaction Biology

[3] = molecular target: T3, 371 kinases (kinase named in each endpoint) (Homo sapiens, UniProt Q99683); details: ASK1/MAP3K5
T3 construct: purchased Reaction Biology
T3 sequence (Q99683 whole entry): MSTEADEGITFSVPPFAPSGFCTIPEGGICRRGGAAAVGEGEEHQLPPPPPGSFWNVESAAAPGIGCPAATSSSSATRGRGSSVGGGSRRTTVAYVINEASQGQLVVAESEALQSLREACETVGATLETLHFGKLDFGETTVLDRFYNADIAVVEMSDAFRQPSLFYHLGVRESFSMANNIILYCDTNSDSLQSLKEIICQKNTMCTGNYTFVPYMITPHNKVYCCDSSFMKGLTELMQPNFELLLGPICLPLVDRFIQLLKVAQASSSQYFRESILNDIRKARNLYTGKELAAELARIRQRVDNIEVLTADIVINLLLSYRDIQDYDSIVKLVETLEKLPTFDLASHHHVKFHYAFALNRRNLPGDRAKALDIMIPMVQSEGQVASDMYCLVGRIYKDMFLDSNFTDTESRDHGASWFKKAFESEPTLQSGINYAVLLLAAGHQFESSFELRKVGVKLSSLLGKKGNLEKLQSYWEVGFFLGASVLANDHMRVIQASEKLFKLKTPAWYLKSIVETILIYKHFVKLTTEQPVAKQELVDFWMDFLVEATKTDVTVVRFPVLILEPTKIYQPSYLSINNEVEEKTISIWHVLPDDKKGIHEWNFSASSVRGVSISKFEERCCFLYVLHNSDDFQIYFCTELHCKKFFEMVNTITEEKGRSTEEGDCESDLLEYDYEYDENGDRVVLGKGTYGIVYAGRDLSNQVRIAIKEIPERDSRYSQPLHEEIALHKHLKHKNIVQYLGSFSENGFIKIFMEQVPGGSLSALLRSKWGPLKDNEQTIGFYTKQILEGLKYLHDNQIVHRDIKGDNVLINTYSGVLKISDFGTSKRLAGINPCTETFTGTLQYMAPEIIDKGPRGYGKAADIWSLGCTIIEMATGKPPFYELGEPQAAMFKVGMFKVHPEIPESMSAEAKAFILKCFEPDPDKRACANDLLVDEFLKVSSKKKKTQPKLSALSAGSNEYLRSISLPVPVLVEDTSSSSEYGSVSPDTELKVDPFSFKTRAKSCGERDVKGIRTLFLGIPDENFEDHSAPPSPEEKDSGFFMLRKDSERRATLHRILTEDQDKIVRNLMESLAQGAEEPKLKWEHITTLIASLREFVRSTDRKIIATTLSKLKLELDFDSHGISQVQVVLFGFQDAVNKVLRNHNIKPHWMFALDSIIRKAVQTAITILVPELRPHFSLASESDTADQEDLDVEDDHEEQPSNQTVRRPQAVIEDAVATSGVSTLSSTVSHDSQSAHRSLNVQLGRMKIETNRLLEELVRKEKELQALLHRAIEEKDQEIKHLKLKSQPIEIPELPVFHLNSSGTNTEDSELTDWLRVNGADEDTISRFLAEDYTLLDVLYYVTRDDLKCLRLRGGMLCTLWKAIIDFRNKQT

[4] = molecular target: T4, 371 kinases (kinase named in each endpoint) (Homo sapiens, UniProt O00444); details: PLK4/SAK
T4 construct: purchased Reaction Biology

[5] = molecular target: T5, 371 kinases (kinase named in each endpoint) (Homo sapiens, UniProt P08069); details: IGF1R
T5 construct: purchased Reaction Biology
T5 sequence (P08069 31-1367): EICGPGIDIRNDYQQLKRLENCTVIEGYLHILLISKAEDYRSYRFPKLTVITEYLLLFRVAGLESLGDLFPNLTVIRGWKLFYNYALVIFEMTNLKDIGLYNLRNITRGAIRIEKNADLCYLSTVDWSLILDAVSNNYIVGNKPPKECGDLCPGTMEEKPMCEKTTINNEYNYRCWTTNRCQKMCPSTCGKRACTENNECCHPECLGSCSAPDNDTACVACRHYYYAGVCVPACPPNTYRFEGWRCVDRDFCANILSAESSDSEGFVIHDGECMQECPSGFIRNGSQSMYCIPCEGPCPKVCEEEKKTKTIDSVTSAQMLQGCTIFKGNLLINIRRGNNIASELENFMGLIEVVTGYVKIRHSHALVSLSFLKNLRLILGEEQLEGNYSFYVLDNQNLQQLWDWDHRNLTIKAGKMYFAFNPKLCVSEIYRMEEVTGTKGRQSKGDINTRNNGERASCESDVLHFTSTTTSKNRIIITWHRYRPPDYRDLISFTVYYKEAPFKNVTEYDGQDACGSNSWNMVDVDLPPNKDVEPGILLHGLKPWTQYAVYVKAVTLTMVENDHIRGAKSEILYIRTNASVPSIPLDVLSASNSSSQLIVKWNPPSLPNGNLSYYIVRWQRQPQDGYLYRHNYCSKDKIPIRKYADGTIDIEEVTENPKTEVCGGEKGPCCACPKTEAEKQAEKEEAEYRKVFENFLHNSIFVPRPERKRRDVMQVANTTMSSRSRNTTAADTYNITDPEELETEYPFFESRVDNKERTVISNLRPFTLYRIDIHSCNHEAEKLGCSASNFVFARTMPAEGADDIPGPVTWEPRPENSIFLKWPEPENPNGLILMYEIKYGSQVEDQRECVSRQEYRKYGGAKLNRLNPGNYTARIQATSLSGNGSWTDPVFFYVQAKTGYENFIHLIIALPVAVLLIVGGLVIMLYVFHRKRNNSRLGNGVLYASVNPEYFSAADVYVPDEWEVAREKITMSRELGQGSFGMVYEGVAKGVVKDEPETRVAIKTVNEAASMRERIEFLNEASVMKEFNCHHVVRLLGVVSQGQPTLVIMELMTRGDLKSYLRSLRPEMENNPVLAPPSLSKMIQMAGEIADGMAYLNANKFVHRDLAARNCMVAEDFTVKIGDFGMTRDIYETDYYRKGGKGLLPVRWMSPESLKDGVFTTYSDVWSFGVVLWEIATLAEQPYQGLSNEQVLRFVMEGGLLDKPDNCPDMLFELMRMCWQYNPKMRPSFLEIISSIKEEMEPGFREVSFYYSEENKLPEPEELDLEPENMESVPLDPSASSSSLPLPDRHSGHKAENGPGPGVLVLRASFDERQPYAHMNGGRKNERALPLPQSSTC

[6] = molecular target: T6, 371 kinases (kinase named in each endpoint) (Homo sapiens, UniProt O75460); details: ERN1/IRE1
T6 construct: purchased Reaction Biology

[7] = molecular target: T7, 371 kinases (kinase named in each endpoint) (Homo sapiens, UniProt P49759); details: CLK1
T7 construct: purchased Reaction Biology
T7 sequence (P49759 whole entry): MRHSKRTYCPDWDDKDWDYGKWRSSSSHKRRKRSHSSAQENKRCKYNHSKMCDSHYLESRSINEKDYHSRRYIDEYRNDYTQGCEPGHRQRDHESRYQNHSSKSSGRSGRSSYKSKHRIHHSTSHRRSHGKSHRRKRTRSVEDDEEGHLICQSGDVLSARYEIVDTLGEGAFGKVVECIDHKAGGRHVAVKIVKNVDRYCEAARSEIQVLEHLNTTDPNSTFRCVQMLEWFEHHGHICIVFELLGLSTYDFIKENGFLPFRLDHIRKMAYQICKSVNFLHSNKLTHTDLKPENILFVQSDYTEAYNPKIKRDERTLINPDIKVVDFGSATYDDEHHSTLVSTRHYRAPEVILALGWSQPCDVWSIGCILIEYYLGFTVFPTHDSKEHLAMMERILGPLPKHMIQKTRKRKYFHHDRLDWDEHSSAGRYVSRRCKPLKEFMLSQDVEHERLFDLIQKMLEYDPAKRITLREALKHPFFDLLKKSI

[8] = molecular target: T8, 371 kinases (kinase named in each endpoint) (Homo sapiens, UniProt Q9H2G2); details: SLK/STK2
T8 construct: purchased Reaction Biology

[9] = molecular target: T9, 371 kinases (kinase named in each endpoint) (Homo sapiens, UniProt Q02779); details: MLK2/MAP3K10
T9 construct: purchased Reaction Biology

[10] = molecular target: T10, 371 kinases (kinase named in each endpoint) (Homo sapiens, UniProt Q7KZI7); details: MARK2/PAR-1BA
T10 construct: purchased Reaction Biology
T10 sequence (Q7KZI7 whole entry): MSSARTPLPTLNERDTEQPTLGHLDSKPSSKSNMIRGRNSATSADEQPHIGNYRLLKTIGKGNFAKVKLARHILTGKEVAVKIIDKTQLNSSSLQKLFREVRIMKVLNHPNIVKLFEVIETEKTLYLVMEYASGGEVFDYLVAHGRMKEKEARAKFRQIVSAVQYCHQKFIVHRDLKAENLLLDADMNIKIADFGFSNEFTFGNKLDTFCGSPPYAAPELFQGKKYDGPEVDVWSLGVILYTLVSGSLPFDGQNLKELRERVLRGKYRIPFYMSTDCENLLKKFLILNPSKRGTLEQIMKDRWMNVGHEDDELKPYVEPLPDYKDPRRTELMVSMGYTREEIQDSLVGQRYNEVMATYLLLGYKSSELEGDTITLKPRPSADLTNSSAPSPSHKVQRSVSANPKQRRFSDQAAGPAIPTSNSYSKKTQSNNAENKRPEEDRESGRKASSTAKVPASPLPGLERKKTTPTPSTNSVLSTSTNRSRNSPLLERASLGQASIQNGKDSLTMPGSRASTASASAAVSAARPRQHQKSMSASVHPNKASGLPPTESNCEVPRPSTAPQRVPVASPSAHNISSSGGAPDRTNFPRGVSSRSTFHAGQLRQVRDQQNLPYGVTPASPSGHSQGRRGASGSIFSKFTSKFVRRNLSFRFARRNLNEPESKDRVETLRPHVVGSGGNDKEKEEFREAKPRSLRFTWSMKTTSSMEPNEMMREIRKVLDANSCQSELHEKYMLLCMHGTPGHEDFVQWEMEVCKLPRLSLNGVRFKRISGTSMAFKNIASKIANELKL

[11] = molecular target: T11, 371 kinases (kinase named in each endpoint) (Homo sapiens, UniProt Q8IWQ3); details: BRSK2
T11 construct: purchased Reaction Biology

[12] = molecular target: T12, 371 kinases (kinase named in each endpoint) (Homo sapiens, UniProt Q13464); details: ROCK1
T12 construct: purchased Reaction Biology

[13] = molecular target: T13, 371 kinases (kinase named in each endpoint) (Homo sapiens, UniProt Q6P2M8); details: CAMK1B
T13 construct: purchased Reaction Biology

[14] = molecular target: T14, 371 kinases (kinase named in each endpoint) (Homo sapiens, UniProt Q8TDC3); details: BRSK1
T14 construct: purchased Reaction Biology

[15] = molecular target: T15, 371 kinases (kinase named in each endpoint) (Homo sapiens, UniProt P51956); details: NEK3
T15 construct: purchased Reaction Biology

[16] = molecular target: T16, 371 kinases (kinase named in each endpoint) (Homo sapiens, UniProt Q9UEW8); details: STK39/STLK3
T16 construct: purchased Reaction Biology

[17] = molecular target: T17, 371 kinases (kinase named in each endpoint) (Homo sapiens, UniProt Q12866); details: C-MER
T17 construct: purchased Reaction Biology

[18] = molecular target: T18, 371 kinases (kinase named in each endpoint) (Homo sapiens, UniProt Q96KB5); details: PBK/TOPK
T18 construct: purchased Reaction Biology

[19] = molecular target: T19, 371 kinases (kinase named in each endpoint) (Homo sapiens, UniProt O75914); details: PAK3
T19 construct: purchased Reaction Biology

[20] = molecular target: T20, 371 kinases (kinase named in each endpoint) (Homo sapiens, UniProt Q86Z02); details: HIPK1
T20 construct: purchased Reaction Biology

[21] = molecular target: T21, 371 kinases (kinase named in each endpoint) (Homo sapiens, UniProt P07949); details: RET
T21 construct: purchased Reaction Biology

[22] = molecular target: T22, 371 kinases (kinase named in each endpoint) (Homo sapiens, UniProt Q13164); details: ERK5/MAPK7
T22 construct: purchased Reaction Biology

[23] = molecular target: T23, 371 kinases (kinase named in each endpoint) (Homo sapiens, UniProt Q13188); details: MST2/STK3
T23 construct: purchased Reaction Biology

[24] = molecular target: T24, 371 kinases (kinase named in each endpoint) (Homo sapiens, UniProt Q13554); details: CAMK2B
T24 construct: purchased Reaction Biology

[25] = molecular target: T25, 371 kinases (kinase named in each endpoint) (Homo sapiens, UniProt P05771); details: PKCB1
T25 construct: purchased Reaction Biology

[26] = molecular target: T26, 371 kinases (kinase named in each endpoint) (Homo sapiens, UniProt Q9HCP0); details: CK1G1
T26 construct: purchased Reaction Biology
T26 sequence (Q9HCP0 whole entry): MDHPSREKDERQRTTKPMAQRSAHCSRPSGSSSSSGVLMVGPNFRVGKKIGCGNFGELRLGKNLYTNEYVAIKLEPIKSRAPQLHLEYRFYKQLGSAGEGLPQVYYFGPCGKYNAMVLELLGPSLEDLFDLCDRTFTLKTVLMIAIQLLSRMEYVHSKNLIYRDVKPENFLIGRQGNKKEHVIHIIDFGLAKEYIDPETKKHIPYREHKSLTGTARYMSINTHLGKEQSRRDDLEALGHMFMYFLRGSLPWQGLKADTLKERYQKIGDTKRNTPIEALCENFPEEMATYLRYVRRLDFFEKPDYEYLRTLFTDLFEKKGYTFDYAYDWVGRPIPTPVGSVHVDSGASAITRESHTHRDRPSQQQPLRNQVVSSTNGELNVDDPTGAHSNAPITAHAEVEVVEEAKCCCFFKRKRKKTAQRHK

[27] = molecular target: T27, 371 kinases (kinase named in each endpoint) (Homo sapiens, UniProt P54762); details: EPHB1
T27 construct: purchased Reaction Biology

[28] = molecular target: T28, 371 kinases (kinase named in each endpoint) (Homo sapiens, UniProt P22607); details: FGFR3
T28 construct: purchased Reaction Biology

[29] = molecular target: T29, 371 kinases (kinase named in each endpoint) (Homo sapiens, UniProt Q13470); details: TNK1
T29 construct: purchased Reaction Biology

[30] = molecular target: T30, 371 kinases (kinase named in each endpoint) (Homo sapiens, UniProt Q13237); details: PKG2/PRKG2
T30 construct: purchased Reaction Biology

[31] = molecular target: T31, 371 kinases (kinase named in each endpoint) (Homo sapiens, UniProt P45984); details: JNK2
T31 construct: purchased Reaction Biology
T31 sequence (P45984 whole entry): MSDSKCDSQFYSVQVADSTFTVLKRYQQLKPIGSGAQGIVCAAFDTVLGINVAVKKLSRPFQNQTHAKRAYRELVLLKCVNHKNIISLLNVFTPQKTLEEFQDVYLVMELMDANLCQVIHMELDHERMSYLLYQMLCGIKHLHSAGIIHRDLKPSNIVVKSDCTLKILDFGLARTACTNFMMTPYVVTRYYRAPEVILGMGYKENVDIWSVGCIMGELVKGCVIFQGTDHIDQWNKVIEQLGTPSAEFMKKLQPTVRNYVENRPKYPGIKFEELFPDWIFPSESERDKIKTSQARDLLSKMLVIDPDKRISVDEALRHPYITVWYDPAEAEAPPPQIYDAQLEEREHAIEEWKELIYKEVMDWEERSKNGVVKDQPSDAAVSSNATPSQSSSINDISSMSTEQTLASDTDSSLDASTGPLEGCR

[32] = molecular target: T32, 371 kinases (kinase named in each endpoint) (Homo sapiens, UniProt Q09013); details: DMPK
T32 construct: purchased Reaction Biology

[33] = molecular target: T33, 371 kinases (kinase named in each endpoint) (Homo sapiens, UniProt P23458); details: JAK1
T33 construct: purchased Reaction Biology

[34] = molecular target: T34, 371 kinases (kinase named in each endpoint) (Homo sapiens, UniProt Q9BYT3); details: STK33
T34 construct: purchased Reaction Biology

[35] = molecular target: T35, 371 kinases (kinase named in each endpoint) (Homo sapiens, UniProt Q9UF33); details: EPHA6
T35 construct: purchased Reaction Biology

[36] = molecular target: T36, 371 kinases (kinase named in each endpoint) (Homo sapiens, UniProt O94921); details: CDK14/CYCLIN Y (PFTK1)
T36 construct: purchased Reaction Biology

[37] = molecular target: T37, 371 kinases (kinase named in each endpoint) (Homo sapiens, UniProt Q9UKE5); details: TNIK
T37 construct: purchased Reaction Biology

Compound: O=C(O)c1cc(C(F)(F)F)ccc1NCCc1c[nH]c2cc(Br)ccc12 [Compound 5, 2-((2-(6-Bromo-1H-indol-3-yl)ethyl)amino)−5-(trifluoromethyl)benzoic Acid]
- activity at 10 µM [1]: 97.8 ± 0.2%
- activity at 10 µM [2]: 101 ± 1.8%
- activity at 10 µM [3]: 110 ± 2.8%
- activity at 10 µM [4]: 91.2 ± 1.2%
- activity at 10 µM [5]: 93.2 ± 0.1%
- activity at 10 µM [6]: 101 ± 0.6%
- activity at 10 µM [7]: 109.3 ± 0.4%
- activity at 10 µM [8]: 89.7 ± 3%
- activity at 10 µM [9]: 74.8 ± 2.2%
- activity at 10 µM [10]: 87.5 ± 0.7%
- activity at 10 µM [11]: 79.5 ± 0.8%
- activity at 10 µM [12]: 93.3 ± 1.1%
- activity at 10 µM [13]: 59.1 ± 0.7%
- activity at 10 µM [14]: 77.2 ± 2.3%
- activity at 10 µM [15]: 93.3 ± 0.4%
- activity at 10 µM [16]: 113.4 ± 0.1%
- activity at 10 µM [17]: 52.1 ± 1.5%
- activity at 10 µM [18]: 156 ± 1.8%
- activity at 10 µM [19]: 84 ± 0.9%
- activity at 10 µM [20]: 64.9 ± 0.2%
- activity at 10 µM [21]: 92.7 ± 3.3%
- activity at 10 µM [22]: 121 ± 3%
- activity at 10 µM [23]: 134 ± 0.4%
- activity at 10 µM [24]: 62.2 ± 0.8%
- activity at 10 µM [25]: 91%
- activity at 10 µM [26]: 96.2 ± 0.3%
- activity at 10 µM [27]: 91.2%
- activity at 10 µM [28]: 90.7 ± 1.5%
- activity at 10 µM [29]: 94.4 ± 0.5%
- activity at 10 µM [30]: 117 ± 7.9%
- activity at 10 µM [31]: 89.6 ± 0.4%
- activity at 10 µM [32]: 108.2 ± 0.2%
- activity at 10 µM [33]: 67.7 ± 0.8%
- activity at 10 µM [34]: 85.1 ± 4.1%
- activity at 10 µM [35]: 91.9 ± 1.1%
- activity at 10 µM [36]: 114 ± 1.5%
- activity at 10 µM [37]: 51.9 ± 1.4%
